# Data published in patent publication US8029818B2, “Method of blunting the postprandial glycemic response to a meal” (Abbott Laboratories, priority 2001, dated 2011).
# Key:
# [1] = tested on: healthy nondiabetic adult subjects; test: Subjective gastrointestinal tolerance questionnaire, 24-h period after the test material; type: in vivo, human; settings: for Intensity of Cramping / Intensity of Distention / Intensity of Flatulence / Intensity of Nausea: 100-mm line scale score (0 Absent, 100 Severe); for Intensity of Cramping / Intensity of Distention / Intensity of Flatulence / Intensity of Nausea / Frequency of Cramping / Frequency of Distention / Frequency of Flatulence / Frequency of Nausea: Mean ± SEM, n=31; for Frequency of Cramping / Frequency of Distention / Frequency of Flatulence / Frequency of Nausea: 100-mm line scale score (0 Usual, 100 More than usual)
# From the text: (§1) The primary objective of this study was to determine the effects of the timing of fructose ingestion on the postprandial glycemic response of healthy nondiabetic adult subjects to instant mashed potatoes, a rapidly digested starch. A secondary objective was to evaluate the effects of an acute challenge of 50 g of carbohydrate from instant mashed potatoes ±10 g fructose on subjective gastrointestinal tolerance.
# Using a questionnaire, subjects were asked to report the frequency and intensity of the following symptoms: nausea, cramping, distention, and flatulence for the 24-h period immediately following consumption of the test material. Intensity and frequency was set to a 100-mm line scale (0 representing “Absent” and 100 “Severe” and 0 representing “Usual” and 100 “More than usual,” respectively). Subjects placed a single perpendicular slash mark across the 100 mm horizontal line to indicate their scores for each of these variables of frequency and intensity. A score of 5 or less was considered not physiologically meaningful.
# humans = settings: fructose intake levels greater than 17% of total Kcal; cited from earlier work
# [2] = tested on: healthy nondiabetic adult subjects; test: 2-hour meal tolerance test (50 g carbohydrate from instant mashed potatoes ±10 g fructose), postprandial glycemic response; type: in vivo, human; settings: for Incremental AUC / Incremental peak glucose / Time to peak: Mean ± SEM; for Glycemic index: incremental AUC for treatment/control (no supplemental fructose) × 100
# From the text: as §1
# The study followed a double-blind crossover design in which subjects participated in four 2-hour meal tolerance tests on separate occasions. Subjects were randomly assigned to one of 24 treatment sequences. After an overnight fast, subjects consumed 50 g carbohydrate from instant mashed potatoes with or without 10 g supplemental fructose. The effects of the timing of fructose ingestion were evaluated by having the subjects consume 10 g fructose 60, 30, or 0 min before the instant mashed potato meal. A control meal tolerance test was given where subjects received no fructose.
# To ensure that subjects had similar glycogen stores on the 4 test days, subjects were instructed to consume a high carbohydrate diet (minimum 150 g carbohydrate per day) for 3 days before each meal tolerance test and were also asked to avoid exercise 24 hours before the experiment. On the evening before each meal tolerance test, all subjects consumed a low-residue dinner consisting of one 8 fl oz (237 ml) can of chocolate Ensure Plus® (Ross Laboratories, Columbus, Ohio) with additional Honey Graham Crunch Ensure® Bars (Ross Laboratories, Columbus, Ohio) to provide one-third of each subject's individual daily caloric requirement as estimated by the Harris-Benedict equation multiplied by an activity factor of 1.3. Subjects were instructed to fast overnight, following their low-residue evening meal, during which they were only allowed to consume water and smoking was prohibited. On the morning of each meal tolerance test, body weight, body temperature, pulse rate and blood pressure were measured by standard procedures. A fasting finger-prick capillary blood sample was obtained and analyzed utilizing two methods of glucose determination. One sample was immediately analyzed for glucose with an Accu-Chek Blood Glucose Monitoring System (Roche Diagnostics, Indianapolis, Ind.). An additional sample was collected into a capillary tube containing EDTA for whole blood glucose analysis (within 30 min of collection) using a YSI analyzer (model YSI 2300 STAT PLUS, Yellow Springs Instruments, Yellow Springs, Ohio). This fasting sample was considered the −60 min time point. According to randomization, subjects then consumed 10 g fructose at −60 min, −30, or 0 min or no supplemental fructose (30 ml water at −60 min). The test meal (50 g carbohydrate from instant mashed potatoes) was given at time 0 and consumed within 10 min. Additional finger-prick capillary blood was obtained at −30, 0, 15, 30, 45, 60, 90 and 120 min postprandial. Subjects were allowed 8 fl oz water (240 ml) during each 2-hour test. Immediately following each trial, body temperature, pulse rate and blood pressure were measured. Subjects returned within 7 days for repeat analysis with the appropriate crossover treatment.
# The products tested were instant mashed potatoes (Hungry Jack Mashed Potatoes; Pillsbury Company) and purified crystalline fructose (Wild Oats Market grocery; Columbus, Ohio).
# The primary variable for this study was incremental peak plasma glucose response. Secondary variables included incremental area under the curve, time to peak glucose, glycemic index, and subjective gastrointestinal tolerance factors. Exploratory variables included absolute and incremental plasma glucose response at −30, 0, 15, 30, 45, 60, 90, and 120 min postprandial.
# A total of 31 healthy nondiabetic (fasting plasma glucose value less than 110 mg/dl; American Diabetes Association, 1997) volunteers (thirteen men and eighteen women) were recruited. […]
# rats = settings: fructose intake levels greater than 17% of total Kcal; cited from earlier work
# [3] = 10 g fructose 60 or 30 min before the meal tolerance test vs fructose with the meal or no supplemental fructose, P<0.05
# [4] = Accu-Chek values, 10 g fructose at 0 min (with test meal), n=31
# [5] = Accu-Chek values, 10 g fructose at −30 min relative to test meal, n=31
# [6] = Accu-Chek values, 10 g fructose at −60 min relative to test meal, n=31
# [7] = YSI values (whole blood), 10 g fructose at 0 min (with test meal), n=28
# [8] = YSI values (whole blood), 10 g fructose at −30 min relative to test meal, n=25
# [9] = YSI values (whole blood), 10 g fructose at −60 min relative to test meal, n=26
smiles,measurement,setting,value
O=C(CO)[C@@H](O)[C@H](O)[C@H](O)CO [fructose],Intensity of Cramping,[1]; 10 g fructose at 0 min,3 ± 1.9
same,Intensity of Distention,[1]; 10 g fructose at 0 min,1 ± 0.4
same,Intensity of Flatulence,[1]; 10 g fructose at 0 min,1 ± 0.5
same,Intensity of Nausea,[1]; 10 g fructose at 0 min,0 ± 0.2
same,Intensity of Cramping,[1]; 10 g fructose at −30 min,2 ± 1.6
same,Intensity of Distention,[1]; 10 g fructose at −30 min,3 ± 1.5
same,Intensity of Flatulence,[1]; 10 g fructose at −30 min,5 ± 1.7
same,Intensity of Nausea,[1]; 10 g fructose at −30 min,1 ± 0.4
same,Intensity of Cramping,[1]; 10 g fructose at −60 min,1 ± 0.3
same,Intensity of Distention,[1]; 10 g fructose at −60 min,1 ± 1.0
same,Intensity of Flatulence,[1]; 10 g fructose at −60 min,3 ± 1.5
same,Intensity of Nausea,[1]; 10 g fructose at −60 min,1 ± 0.3
same,Frequency of Cramping,[1]; 10 g fructose at 0 min,7 ± 4.1
same,Frequency of Distention,[1]; 10 g fructose at 0 min,1 ± 0.6
same,Frequency of Flatulence,[1]; 10 g fructose at 0 min,3 ± 1.3
same,Frequency of Nausea,[1]; 10 g fructose at 0 min,1 ± 0.2
same,Frequency of Cramping,[1]; 10 g fructose at −30 min,1 ± 0.2
same,Frequency of Distention,[1]; 10 g fructose at −30 min,4 ± 1.9
same,Frequency of Flatulence,[1]; 10 g fructose at −30 min,7 ± 2.9
same,Frequency of Nausea,[1]; 10 g fructose at −30 min,1 ± 0.2
same,Frequency of Cramping,[1]; 10 g fructose at −60 min,4 ± 3.2
same,Frequency of Distention,[1]; 10 g fructose at −60 min,1 ± 0.3
same,Frequency of Flatulence,[1]; 10 g fructose at −60 min,3 ± 1.7
same,Frequency of Nausea,[1]; 10 g fructose at −60 min,1 ± 0.3
same,"gastrointestinal symptoms (intensity and frequency of nausea, cramping, distention and flatulence)",[1]; all treatments: 50 g carbohydrate from instant mashed potatoes with or without 10 g supplemental fructose,Minimal effects
same,effect on blood lipids,humans,cause hypertriacylglycerolemia and hypercholesterolemia
same,Peak incremental change from baseline for plasma glucose,[2]; [3],lower
same,incremental area under the curve for plasma glucose,[2]; [3],lower
same,incremental change from baseline in plasma glucose at the 0 min time point,"[2]; 10 g fructose at −30 min compared to the 0-min time fructose ingestion treatment, P<0.05",increased
same,incremental change from baseline in plasma glucose at the −30 min time point,"[2]; 10 g fructose at −60 min compared to the other treatments, P<0.05",increased
same,postprandial glycemic response,[2]; 10 g fructose given 30 or 60 min before the meal tolerance test,reduced the postprandial glycemic response
same,postprandial glycemic response,"[2]; 10 g supplemental fructose given with the meal glucose tolerance test, compared to the control",had no effect
same,Incremental AUC,[2]; [4],3059 ± 246 mg·min/dL
same,Incremental peak glucose,[2]; [4],65.7 ± 3.2 mg/dL
same,Time to peak,[2]; [4],38 ± 1.9 min
same,Glycemic index,"[2]; Accu-Chek values, 10 g fructose at 0 min, n=31",98.8 ± 6.2
same,Glycemic index,"[2]; Accu-Chek values, 10 g fructose at −30 min, n=31",80.2 ± 8.5
same,Incremental AUC,[2]; [5],2329 ± 210 mg·min/dL
same,Incremental peak glucose,[2]; [5],49.5 ± 2.5 mg/dL
same,Time to peak,[2]; [5],36 ± 2.0 min
same,Glycemic index,"[2]; Accu-Chek values, 10 g fructose at −60 min, n=31",84.1 ± 6.6
same,Incremental AUC,[2]; [6],2398 ± 142 mg·min/dL
same,Incremental peak glucose,[2]; [6],51.6 ± 2.2 mg/dL
same,Time to peak,[2]; [6],35 ± 1.3 min
same,Incremental AUC,[2]; [7],2592 ± 213 mg·min/dL
same,Incremental peak glucose,[2]; [7],56.7 ± 3.0 mg/dL
same,Time to peak,[2]; [7],37 ± 1.8 min
same,Incremental AUC,[2]; [8],1880 ± 189 mg·min/dL
same,Incremental peak glucose,[2]; [8],39.9 ± 2.6 mg/dL
same,Time to peak,[2]; [8],33 ± 1.5 min
same,Incremental AUC,[2]; [9],2094 ± 132 mg·min/dL
same,Incremental peak glucose,[2]; [9],44.4 ± 2.0 mg/dL
same,Time to peak,[2]; [9],33 ± 1.2 min
same,Glycemic index,"[2]; YSI values, 10 g fructose at 0 min, n=28",107.1 ± 11.1
same,Glycemic index,"[2]; YSI values, 10 g fructose at −30 min, n=25",82.5 ± 10.6
same,Glycemic index,"[2]; YSI values, 10 g fructose at −60 min, n=26",89.6 ± 7.5
same,Time to peak glucose,"[2]; between treatments (fructose at −60, −30, 0 min or none), P>0.05",did not differ
same,postprandial incremental change from baseline in plasma glucose at 90 and 120 min,"[2]; between treatments, P>0.05",did not differ
same,incremental change from baseline in plasma glucose at 15 min,"[2]; fructose at −30 min compared to the control and 0-min time fructose ingestion treatment, P<0.05",higher
same,"incremental change from baseline in plasma glucose over the 30, 45 and 60 min time points",[2]; fructose −60 or −30 min relative to the meal tolerance test,tended to be lower
same,effect on blood lipids,rats,cause hypertriacylglycerolemia and hypercholesterolemia
